Assay results published in ChEMBL document CHEMBL2424554, “Synthesis of new indazole derivatives as potential antioxidant agents” (Med Chem Res, 2013).

Tests used:
Assay type in all cases: functional
[1] = Antioxidant activity assessed as ascorbic acid equivalent antioxidant capacity per mg sample after 90 mins by phosphomolybdenum method
[2] = Antioxidant activity assessed as effective concentration for potassium ferric cyanide ion reducing power equivalent of 0.5 absorbance ellagic acid at 100 to 1000 ug/ml after 20 mins by FRAP assay
[3] = Antioxidant activity assessed as DPPH scavenging activity after 20 mins by spectrophotometry; parameters: concentration or dose not given beside the values

O=c1c2c([nH]n1-c1ccc([N+](=O)[O-])cc1)C=C(c1ccc(F)cc1)CC2c1ccccc1 (stereo not drawn)
Activity [1]: 0.69 µM | Activity [2]: 0.47 mg/mL | Activity [3]: 89.6%

O=c1[nH][nH]c2c1C(c1ccc(Br)cc1)CC(c1ccc(F)cc1)=C2 (stereo not drawn)
Activity [1]: 1.17 µM | Activity [2]: 1.14 mg/mL | Activity [3]: 16.2%

O=c1[nH][nH]c2c1C(c1ccccc1)CC(c1ccc(F)cc1)=C2 (stereo not drawn)
Activity [1]: 4.75 µM | Activity [2]: 0.63 mg/mL | Activity [3]: 19.8%

O=c1[nH][nH]c2c1C(c1ccc(Cl)cc1)CC(c1ccc(F)cc1)=C2 (stereo not drawn)
Activity [1]: 8.4 µM | Activity [2]: 1.2 mg/mL | Activity [3]: 17.9%

O=c1c2c([nH]n1-c1ccc([N+](=O)[O-])cc1[N+](=O)[O-])C=C(c1ccc(F)cc1)CC2c1ccccc1 (stereo not drawn)
Activity [1]: 16.2 µM | Activity [2]: 3.26 mg/mL | Activity [3]: 4.21%

O=c1c2c([nH]n1-c1ccc([N+](=O)[O-])cc1[N+](=O)[O-])C=C(c1ccc(F)cc1)CC2c1ccc(Br)cc1 (stereo not drawn)
Activity [1]: 4.69 µM | Activity [2]: 0.76 mg/mL | Activity [3]: 2.34%

O=c1c2c([nH]n1-c1ccc([N+](=O)[O-])cc1)C=C(c1ccc(F)cc1)CC2c1ccc(Br)cc1 (stereo not drawn)
Activity [1]: 0.58 µM | Activity [2]: 0.64 mg/mL | Activity [3]: 85.3%

O=c1oc2c(O)c(O)cc3c(=O)oc4c(O)c(O)cc1c4c23
Activity [2]: 0.105 mg/mL

N[C@@H](CCC(=O)N[C@@H](CS)C(=O)NCC(=O)O)C(=O)O
Activity [3]: 92.1%

O=c1c2c([nH]n1-c1ccc([N+](=O)[O-])cc1)C=C(c1ccc(F)cc1)CC2c1ccc(Cl)cc1 (stereo not drawn)
Activity [1]: 6.22 µM | Activity [2]: 0.95 mg/mL | Activity [3]: 84.4%

O=c1c2c([nH]n1-c1ccccc1)C=C(c1ccc(F)cc1)CC2c1ccc(Cl)cc1 (stereo not drawn)
Activity [1]: 2.59 µM | Activity [2]: 1.49 mg/mL | Activity [3]: 94%

O=c1c2c([nH]n1-c1ccccc1)C=C(c1ccc(F)cc1)CC2c1ccccc1 (stereo not drawn)
Activity [1]: 3.95 µM | Activity [2]: 1.95 mg/mL | Activity [3]: 90.2%

O=c1c2c([nH]n1-c1ccccc1)C=C(c1ccc(F)cc1)CC2c1ccc(Br)cc1 (stereo not drawn)
Activity [1]: 1.97 µM | Activity [2]: 0.802 mg/mL | Activity [3]: 96.8%

O=c1c2c([nH]n1-c1ccc([N+](=O)[O-])cc1[N+](=O)[O-])C=C(c1ccc(F)cc1)CC2c1ccc(Cl)cc1 (stereo not drawn)
Activity [1]: 7.83 µM | Activity [2]: 0.75 mg/mL | Activity [3]: 19.6%
